In article PMC7587962, “Evaluation of Cytotoxicity and α-Glucosidase Inhibitory Activity of Amide and Polyamino-Derivatives of Lupane Triterpenoids” (Molecules, 2020):

Assays:
RPMI-8226 = experiment: NCI-60 SRB screen: leukemia RPMI-8226; assay type: cell-based; details: Homo sapiens, 48 h, RPMI-8226
Breast cancer subpanel = experiment: NCI-60 screen, subpanel Breast cancer
Prostate cancer subpanel = experiment: NCI-60 screen, subpanel Prostate cancer
[1] = system: 60 human tumor cell lines; details: single dose 10 µM
HS 578T = experiment: NCI-60 SRB screen: breast cancer HS 578T; assay type: cell-based, human; details: HS 578T
COLO 205 = experiment: NCI-60 SRB screen: colon cancer COLO 205; assay type: cell-based, human; details: COLO 205
SF-295 = experiment: NCI-60 SRB screen: CNS cancer SF-295; assay type: cell-based, human; details: SF-295
U251 = experiment: NCI-60 SRB screen: CNS cancer U251; assay type: cell-based; details: Homo sapiens, U251
MOLT-4 = experiment: NCI-60 SRB screen: leukemia MOLT-4; assay type: cell-based; details: Homo sapiens, 48 h, MOLT-4
MDA-MB-435 = experiment: NCI-60 SRB screen: melanoma MDA-MB-435; assay type: cell-based, human; details: MDA-MB-435
TK-10 = experiment: NCI-60 SRB screen: renal cancer TK-10; assay type: cell-based, human; details: TK-10
OVCAR-5 = experiment: NCI-60 SRB screen: ovarian cancer OVCAR-5; assay type: cell-based, human; details: OVCAR-5
MDA-MB-231/ATCC = experiment: NCI-60 SRB screen: breast cancer MDA-MB-231/ATCC; assay type: cell-based; details: Homo sapiens, 48 h
OVCAR-3 = experiment: NCI-60 SRB screen: ovarian cancer OVCAR-3; assay type: cell-based, human; details: OVCAR-3
UACC-257 = experiment: NCI-60 SRB screen: melanoma UACC-257; assay type: cell-based, human; details: UACC-257
SNB-75 = experiment: NCI-60 SRB screen: CNS cancer SNB-75; assay type: cell-based, human; details: SNB-75
MCF7 = experiment: NCI-60 SRB screen: breast cancer MCF7; assay type: cell-based; details: Homo sapiens, 48 h, MCF7
CCRF-CEM = experiment: NCI-60 SRB screen: leukemia CCRF-CEM; assay type: cell-based; details: Homo sapiens, 48 h
SR = experiment: NCI-60 SRB screen: leukemia SR; assay type: cell-based; details: Homo sapiens, 48 h
HOP-92 = experiment: NCI-60 SRB screen: non-small cell lung cancer HOP-92; assay type: cell-based, human; details: HOP-92
UACC-62 = experiment: NCI-60 SRB screen: melanoma UACC-62; assay type: cell-based, human; details: UACC-62
Colon Cancer subpanel = experiment: NCI-60 screen, subpanel Colon Cancer
OVCAR-8 = experiment: NCI-60 SRB screen: ovarian cancer OVCAR-8; assay type: cell-based, human; details: OVCAR-8
LOX IMVI = experiment: NCI-60 SRB screen: melanoma LOX IMVI; assay type: cell-based, human
HL-60(TB) = experiment: NCI-60 SRB screen: leukemia HL-60(TB); assay type: cell-based; details: Homo sapiens, 48 h, HL-60(TB)
M14 = experiment: NCI-60 SRB screen: melanoma M14; assay type: cell-based, human; details: M14
IGROV1 = experiment: NCI-60 SRB screen: ovarian cancer IGROV1; assay type: cell-based, human; details: IGROV1
SK-MEL-5 = experiment: NCI-60 SRB screen: melanoma SK-MEL-5; assay type: cell-based, human; details: SK-MEL-5
RXF 393 = experiment: NCI-60 SRB screen: renal cancer RXF 393; assay type: cell-based, human; details: RXF 393
NCI-H460 = experiment: NCI-60 SRB screen: non-small cell lung cancer NCI-H460; assay type: cell-based; details: Homo sapiens, 48 h, NCI-H460
A498 = experiment: NCI-60 SRB screen: renal cancer A498; assay type: cell-based, human; details: A498
SN12C = experiment: NCI-60 SRB screen: renal cancer SN12C; assay type: cell-based, human
ACHN = experiment: NCI-60 SRB screen: renal cancer ACHN; assay type: cell-based, human
HCT-116 = experiment: NCI-60 SRB screen: colon cancer HCT-116; assay type: cell-based; details: Homo sapiens, 48 h, HCT-116
DU-145 = experiment: NCI-60 SRB screen: prostate cancer DU-145; assay type: cell-based, human; details: DU-145
NCI/ADR-RES = experiment: NCI-60 SRB screen: ovarian cancer NCI/ADR-RES; assay type: cell-based, human
CNS cancer subpanel = experiment: NCI-60 screen, subpanel CNS cancer
[2] = single dose 10 µM, read-out: Percentage Cell Growth
[3] = five concentrations, SRB, read-out: GI50
[4] = Homo sapiens, five concentrations, 48 h, SRB, read-out: GI50

With `C=C(C)[C@@H]1CC[C@]2(C(=O)OC)CC[C@]3(C)[C@H](CC[C@@H]4[C@@]5(C)CCC(=NOCCC(=NOCCC#N)NCCC#N)C(C)(C)[C@@H]5CC[C@]43C)[C@@H]12` [Compound 21] the activity at 10 µM (RPMI-8226; [2]) was 3.28%, the GI50 (RPMI-8226; [3]) was 4.91 µM and the “MID b, average sensitivity of all cell line of particular subpanel” value (“MID b, average sensitivity” below) (Breast cancer subpanel) was 10.16 µM. The “Selectivity, ratio MID a: MID b” value (Breast cancer subpanel) was 1.00, the “MID b, average sensitivity” value (Prostate cancer subpanel) was 7.83 µM and the “Selectivity, ratio MID a: MID b” value (Prostate cancer subpanel) was 1.31. For the same molecule, the “cancer cell lethality, range of percentage growth” value ([1]; cell lines with negative growth) was −0.38% to −84.68%, the “cases of cancer cell lethality” value ([1]; number of cell lines) was 11 and the “Percentage Cell Growth” value (HS 578T; single dose 10 µM) was 24.26%. The GI50 (HS 578T; [4]) was 30.2 µM, the “Percentage Cell Growth” value (COLO 205; single dose 10 µM) was 17.60% and the GI50 (COLO 205; [4]) was 9.02 µM. For the same molecule, the GI50 (SF-295; [4]) was 21.4 µM, the “Percentage Cell Growth” value (SF-295; single dose 10 µM) was 36.56% and the activity at 10 µM (U251; U-251, 48 h, single dose 10 µM, read-out: Percentage Cell Growth) was -39.7%. For the same molecule, the GI50 (U251; U-251, five concentrations, 48 h, SRB, read-out: GI50) was 4.3 µM, the activity at 10 µM (MOLT-4; [2]) was -26.8% and the GI50 (MOLT-4; [3]) was 2.52 µM. The GI50 (MDA-MB-435; [4]) was 9.7 µM, the “Percentage Cell Growth” value (MDA-MB-435; single dose 10 µM) was 14.55% and the GI50 (TK-10; [4]) was 13.8 µM. For the same molecule, the “Percentage Cell Growth” value (TK-10; single dose 10 µM) was 37.88%, the GI50 (OVCAR-5; [4]) was 16.7 µM and the “Percentage Cell Growth” value (OVCAR-5; single dose 10 µM) was 50.59%. It also gave an activity at 10 µM (MDA-MB-231/ATCC; MDA-MB-231/ATCC, single dose 10 µM, read-out: Percentage Cell Growth) of 5.09%, a GI50 (MDA-MB-231/ATCC; MDA-MB-231, MDA-MB-31/ATCC, five concentrations, SRB, read-out: GI50) of 10.3 µM and a GI50 (OVCAR-3; [4]) of 5.17 µM. For the same molecule, the “Percentage Cell Growth” value (OVCAR-3; single dose 10 µM) was −34.55%, the GI50 (UACC-257; [4]) was 5.35 µM and the “Percentage Cell Growth” value (UACC-257; single dose 10 µM) was 8.82%. The GI50 (SNB-75; [4]) was 31.2 µM, the “Percentage Cell Growth” value (SNB-75; single dose 10 µM) was 18.44% and the activity at 10 µM (MCF7; [2]) was 12.4%. It also gave a GI50 (MCF7; [3]) of 3.67 µM, an activity at 10 µM (CCRF-CEM; [2]) of 7.42% and a GI50 (CCRF-CEM; [3]) of 11.7 µM. For the same molecule, the activity at 10 µM (SR; [2]) was 1.86%, the GI50 (SR; [3]) was 2.87 µM and the “Percentage Cell Growth” value (HOP-92; single dose 10 µM) was −14.95%. The GI50 (HOP-92; [4]) was 6.9 µM, the GI50 (UACC-62; [4]) was 2.32 µM and the “Percentage Cell Growth” value (UACC-62; single dose 10 µM) was −25.76%. The “MID b, average sensitivity” value (Colon Cancer subpanel) was 7.42 µM, the “Selectivity, ratio MID a: MID b” value (Colon Cancer subpanel) was 1.38 and the GI50 (OVCAR-8; [4]) was 9.66 µM. For the same molecule, the “Percentage Cell Growth” value (OVCAR-8; single dose 10 µM) was 13.17%, the GI50 (LOX IMVI; [4]) was 4.32 µM and the “Percentage Cell Growth” value (LOX IMVI; single dose 10 µM) was 14.56%. The activity at 10 µM (HL-60(TB); [2]) was 0.9%, the GI50 (HL-60(TB); [3]) was 5.18 µM and the GI50 (M14; [4]) was 11.9 µM. The “Percentage Cell Growth” value (M14; single dose 10 µM) was 26.57%, the GI50 (IGROV1; Homo sapiens, IGROV-1, five concentrations, 48 h, SRB, read-out: GI50) was 14.9 µM and the “Percentage Cell Growth” value (IGROV1; single dose 10 µM) was 18.78%. The GI50 (SK-MEL-5; [4]) was 3.02 µM, the “Percentage Cell Growth” value (SK-MEL-5; single dose 10 µM) was −84.68% and the GI50 (RXF 393; [4]) was 5.64 µM. The “Percentage Cell Growth” value (RXF 393; single dose 10 µM) was −43.14%, the activity at 10 µM (NCI-H460; [2]) was 4.23% and the GI50 (NCI-H460; [3]) was 11.1 µM. The “Percentage Cell Growth” value (A498; single dose 10 µM) was −0.38%, the GI50 (A498; [4]) was 21.7 µM and the GI50 (SN12C; [4]) was 7.28 µM. The “Percentage Cell Growth” value (SN12C; single dose 10 µM) was −71.91%, the GI50 (ACHN; [4]) was 10.5 µM and the “Percentage Cell Growth” value (ACHN; single dose 10 µM) was 13.94%. The activity at 10 µM (HCT-116; [2]) was 4.16%, the GI50 (HCT-116; [3]) was 2.89 µM and the “Percentage Cell Growth” value (DU-145; single dose 10 µM) was 27.53%. The GI50 (DU-145; [4]) was 13.4 µM, the GI50 (NCI/ADR-RES; [4]) was 13.5 µM and the “Percentage Cell Growth” value (NCI/ADR-RES; single dose 10 µM) was 17.06%. For the same molecule, the “MID b, average sensitivity” value (CNS cancer subpanel) was 15.32 µM and the “Selectivity, ratio MID a: MID b” value (CNS cancer subpanel) was 0.67.
